# Data published in patent US10369130B2, “Antibacterial compounds” (AZIENDE CHIMICHE RIUNITE ANGELINI FRANCESCO A.C.R.A.F. …, priority 2014, dated 2019).
# Structures can show the parent of a compound that is named as a salt.
# Columns and labels:
# Assay type in all cases: biochemical
# Settings in all cases: single concentration (200, 100 or 50 μM), in duplicate, versus the positive control (vehicle)
# DNA gyrase [1] = biological target: T1, DNA gyrase (Escherichia coli, UniProt P0AES4+P0AES6); assay: DNA gyrase supercoiling assay (E. coli)
# T1 construct: purchased Inspiralis, UK
# Experimental: (§1) The above compounds were tested for the inhibition of the enzyme DNA gyrase in a gyrase supercoiling assay and for the inhibition of the enzyme topoisomerase IV in a decatenation assay, in both Gram positive and Gram negative bacteria, according to the following methods.
# (§2) Both the assays were carried out according to a set-up method modified from the article to Blanche F, et al. “Differential Behaviors of Staphylococcus aureus and Escherichia coli Type II DNA Topoisomerases”, Antimicrob.
# (§3) The compounds were screened at single concentration (200, 100 or 50 μM), in duplicate.
# (§4) Ciprofloxacin and novobiocin were used as reference compounds, at single concentration of 200 and 50 μM, respectively.
# (§5) DNA Gyrase Supercoiling Assay.
# (§6) Reagents from S. aureus and E. coli Gyrase Supercoiling Assay kits (Inspiralis, UK) were used. A master mix with a total volume sufficient for the number of reactions to perform was prepared with the following reagents: 5× assay buffer, relaxed pBR322 substrate (0.5 μg/reaction), RNase-DNase free water. Aliquotes of this mix were dispensed in each tube, then 10× compound stock solutions or vehicle control (DMSO), were added to each reaction tube.
# (§7) Reaction was started with E. Coli (2 U/reaction) or S. aureus (1 U/reaction) gyrase enzyme addition.
# (§8) A sample added with an equal volume of dilution buffer was used as negative control (without enzyme).
# (§9) The reaction tubes were gentle vortexed and incubated 30 minutes at 37° C. Each reaction was stopped by adding 30 μl of Stop Buffer and 30 μl chloroform/isoamyl alcohol (24/1), briefly vortexed for 5-10 seconds and centrifuged at 20000×g for 2 minutes. Samples were loaded onto 1% agarose gel and subjected to electrophoresis for 1 hour at 80V constant voltage in TAE (40 mM Tris-acetate, 2 mM EDTA).
# (§10) Data acquisition and analysis. Treatment of relaxed pBR322 with DNA gyrase converted the relaxed topoisomers (DNAs of different linking number) to the supercoiled form of the plasmid, which migrates faster on an agarose gel. An upper band might also be visible, which consists of open-circular (nicked) DNA which is present in the relaxed substrate but co-migrates with some of the relaxed topoisomers.
# (§11) Bands were visualized by ethidium bromide staining (dil 1:20000) for 30 minutes followed by destaining in distilled water for 10 minutes.
# (§12) In order to evaluate the compounds activity on the enzyme, the bands of supercoiled DNAs in the gel were photographed by a digital imaging system ImageQuant LAS 4000 (GE Healthcare) according to manufacturer's instructions.
# (§13) The fluorescent intensity of each band was analysed by ImageQuant TL software and it was expressed as volume (volume of the uncalibrated quantity of material in the image feature after subtraction of the background intensity by using rolling ball method).
# (§14) Each band intensity was compared, as percentage, to vehicle sample band intensity, which served as positive control, on the same gel.
# (§15) Inhibitory activity was expressed as percent of inhibition versus the positive control.
# Topoisomerase IV [2] = biological target: T2, Topoisomerase IV (Staphylococcus aureus, UniProt P0C1S7+P0C1U9); assay: Topoisomerase IV decatenation assay (S. aureus)
# T2 construct: purchased Inspiralis, UK
# Experimental: as §1, §2, §3, §4
# (§16) Topoisomerase IV Decatenation Assay
# (§17) S. aureus and E. coli Topoisomerase IV decatenation kits (Inspiralis, UK) were used. A master mix with a total volume sufficient for the number of reactions to perform was prepared with the following reagents: 5× assay buffer (50 mM HEPES-KOH (pH 7.6), 100 mM potassium glutamate, 10 mM magnesium acetate, 10 mM DTT, 1 mM ATP, 50 μg/ml albumin), kDNA substrate (200 ng/reaction), RNase-DNase free water. Aliquots of this mix were dispensed in each tube, then 10× compound stock solutions or vehicle control (DMSO), were added in each reaction tube.
# (§18) Reaction was started with Topoisomerase IV enzyme (0.5 U/reaction) addition.
# as §8
# (§19) The reaction tubes were gentle vortexed and incubated 30 minutes at 37° C. Each reaction was stopped by adding 30 μl of Stop Buffer and 30 μl of chloroform/isoamyl alcohol (24/1), briefly vortexed for 5-10 seconds and centrifuged at 20000×g for 2 minutes. Samples taken from the upper phase were loaded into 1% agarose gel and subjected to electrophoresis for 1 hour at 80V constant voltage in TAE (40 mM Tris-acetate, 2 mM EDTA).
# (§20) Data acquisition and analysis. Due to the high molecular mass, kDNA could not enter an agarose gel under normal electrophoresis conditions, but remained in the wells. In the presence of Topo IV topoisomerase mini-circles (2.5 Kb) were released from kDNA by decatenation and were quickly and easily resolved in the gel at relatively high voltages.
# as §11
# (§21) For single concentration screening assay, in order to evaluate the compounds activity on the enzymes, the bands of decatenated DNAs in the gel were photographed by a digital imaging system ImageQuant LAS 4000 (GE Healthcare) according to manufacturer's instructions.
# (§22) The fluorescent intensity of each band was analyzed by ImageQuant TL software and it was expressed as volume (volume of the uncalibrated quantity of material in the image feature after subtraction of the background intensity by using rolling ball method).
# as §14, §15
# Topoisomerase IV [3] = biological target: T3, Topoisomerase IV (Escherichia coli, UniProt P0AFI2+P20083); assay: Topoisomerase IV decatenation assay (E. coli)
# T3 construct: purchased Inspiralis, UK
# Experimental: as §1, §2, §3, §4, §16, §17, §18, §8, §19, §20, §11, §21, §22, §14, §15
# DNA gyrase [4] = biological target: T4, DNA gyrase (Staphylococcus aureus, UniProt P0A0K8+P20831); assay: DNA gyrase supercoiling assay (S. aureus)
# T4 construct: purchased Inspiralis, UK
# Experimental: as §1, §2, §3, §4, §5, §6, §7, §8, §9, §10, §11, §12, §13, §14, §15
# T4 sequence (P20831 whole entry): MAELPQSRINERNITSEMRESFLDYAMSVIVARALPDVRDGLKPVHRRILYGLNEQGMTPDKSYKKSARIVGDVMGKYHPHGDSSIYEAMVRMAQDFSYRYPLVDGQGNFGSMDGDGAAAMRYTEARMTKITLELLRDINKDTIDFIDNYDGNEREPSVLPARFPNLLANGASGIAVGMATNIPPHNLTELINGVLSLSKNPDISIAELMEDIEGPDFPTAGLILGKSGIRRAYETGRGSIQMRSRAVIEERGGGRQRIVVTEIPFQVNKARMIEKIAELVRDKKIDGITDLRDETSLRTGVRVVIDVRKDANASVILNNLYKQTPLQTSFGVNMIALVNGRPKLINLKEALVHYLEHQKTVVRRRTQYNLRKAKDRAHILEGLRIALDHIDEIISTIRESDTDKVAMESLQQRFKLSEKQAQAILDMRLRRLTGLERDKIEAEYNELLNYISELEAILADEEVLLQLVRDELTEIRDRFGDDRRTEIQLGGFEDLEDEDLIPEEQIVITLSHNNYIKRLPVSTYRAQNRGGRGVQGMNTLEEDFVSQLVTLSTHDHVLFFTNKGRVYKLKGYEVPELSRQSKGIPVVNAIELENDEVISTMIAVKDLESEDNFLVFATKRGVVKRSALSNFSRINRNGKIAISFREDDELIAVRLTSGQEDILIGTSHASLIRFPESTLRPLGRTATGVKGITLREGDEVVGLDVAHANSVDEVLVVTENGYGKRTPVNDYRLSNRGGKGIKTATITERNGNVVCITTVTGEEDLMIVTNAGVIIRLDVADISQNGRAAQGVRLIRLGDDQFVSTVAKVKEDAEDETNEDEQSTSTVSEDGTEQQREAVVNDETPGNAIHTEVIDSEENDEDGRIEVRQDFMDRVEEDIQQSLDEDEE
# T4 sequence (P0A0K8 whole entry): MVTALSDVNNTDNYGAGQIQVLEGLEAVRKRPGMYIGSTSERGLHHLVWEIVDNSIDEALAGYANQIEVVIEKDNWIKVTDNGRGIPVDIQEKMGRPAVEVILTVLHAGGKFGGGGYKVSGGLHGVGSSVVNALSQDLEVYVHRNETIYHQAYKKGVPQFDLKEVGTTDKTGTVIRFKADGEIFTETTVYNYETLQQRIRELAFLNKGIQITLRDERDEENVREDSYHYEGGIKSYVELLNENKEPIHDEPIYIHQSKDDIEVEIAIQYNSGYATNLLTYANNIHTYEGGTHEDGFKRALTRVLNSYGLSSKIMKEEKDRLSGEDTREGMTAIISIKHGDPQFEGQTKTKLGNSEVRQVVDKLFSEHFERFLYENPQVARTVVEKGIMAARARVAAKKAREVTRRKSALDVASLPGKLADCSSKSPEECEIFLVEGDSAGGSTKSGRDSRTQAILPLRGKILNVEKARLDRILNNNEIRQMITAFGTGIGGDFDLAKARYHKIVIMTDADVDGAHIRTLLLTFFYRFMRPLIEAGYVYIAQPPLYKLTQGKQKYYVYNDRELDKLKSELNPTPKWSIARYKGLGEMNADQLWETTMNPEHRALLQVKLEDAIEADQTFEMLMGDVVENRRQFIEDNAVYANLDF
# T2 sequence (P0C1S7 whole entry): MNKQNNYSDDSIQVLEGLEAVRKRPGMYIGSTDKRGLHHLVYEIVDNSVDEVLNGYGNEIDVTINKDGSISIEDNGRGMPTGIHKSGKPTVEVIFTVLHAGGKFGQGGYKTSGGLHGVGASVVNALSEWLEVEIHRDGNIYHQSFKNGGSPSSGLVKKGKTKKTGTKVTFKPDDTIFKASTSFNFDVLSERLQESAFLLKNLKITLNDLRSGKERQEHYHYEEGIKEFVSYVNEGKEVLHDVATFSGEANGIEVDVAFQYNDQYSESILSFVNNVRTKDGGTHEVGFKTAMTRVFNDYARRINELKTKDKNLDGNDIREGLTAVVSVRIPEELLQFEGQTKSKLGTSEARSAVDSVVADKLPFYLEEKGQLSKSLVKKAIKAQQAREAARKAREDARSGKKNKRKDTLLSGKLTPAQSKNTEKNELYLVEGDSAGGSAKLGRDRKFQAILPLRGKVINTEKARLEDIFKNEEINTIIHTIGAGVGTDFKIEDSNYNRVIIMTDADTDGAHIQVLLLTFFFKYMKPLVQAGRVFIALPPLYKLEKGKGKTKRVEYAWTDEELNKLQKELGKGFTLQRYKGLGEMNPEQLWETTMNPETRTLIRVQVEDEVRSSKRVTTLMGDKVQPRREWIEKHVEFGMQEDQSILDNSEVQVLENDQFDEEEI
# T2 sequence (P0C1U9 whole entry): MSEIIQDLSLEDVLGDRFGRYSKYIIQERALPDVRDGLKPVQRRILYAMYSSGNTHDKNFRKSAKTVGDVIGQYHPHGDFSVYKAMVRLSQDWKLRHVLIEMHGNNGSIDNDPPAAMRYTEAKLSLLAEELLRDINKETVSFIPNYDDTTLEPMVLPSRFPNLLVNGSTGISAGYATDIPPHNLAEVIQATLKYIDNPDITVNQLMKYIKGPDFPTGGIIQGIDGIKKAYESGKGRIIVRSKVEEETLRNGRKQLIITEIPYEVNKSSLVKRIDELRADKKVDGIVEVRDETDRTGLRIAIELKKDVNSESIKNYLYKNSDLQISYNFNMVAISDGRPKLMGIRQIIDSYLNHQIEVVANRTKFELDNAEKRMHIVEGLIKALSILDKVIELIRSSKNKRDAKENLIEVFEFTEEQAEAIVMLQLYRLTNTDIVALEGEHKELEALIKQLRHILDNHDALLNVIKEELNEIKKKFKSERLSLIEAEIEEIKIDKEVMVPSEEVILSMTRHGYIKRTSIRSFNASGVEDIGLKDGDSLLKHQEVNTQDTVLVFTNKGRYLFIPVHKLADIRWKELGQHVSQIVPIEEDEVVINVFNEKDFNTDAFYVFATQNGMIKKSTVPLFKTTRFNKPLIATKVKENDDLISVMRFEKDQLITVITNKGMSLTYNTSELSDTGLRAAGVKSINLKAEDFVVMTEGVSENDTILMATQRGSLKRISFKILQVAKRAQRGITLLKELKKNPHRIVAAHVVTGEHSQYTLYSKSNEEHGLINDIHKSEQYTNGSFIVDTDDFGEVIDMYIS
# T1 sequence (P0AES4 whole entry, one chain of several): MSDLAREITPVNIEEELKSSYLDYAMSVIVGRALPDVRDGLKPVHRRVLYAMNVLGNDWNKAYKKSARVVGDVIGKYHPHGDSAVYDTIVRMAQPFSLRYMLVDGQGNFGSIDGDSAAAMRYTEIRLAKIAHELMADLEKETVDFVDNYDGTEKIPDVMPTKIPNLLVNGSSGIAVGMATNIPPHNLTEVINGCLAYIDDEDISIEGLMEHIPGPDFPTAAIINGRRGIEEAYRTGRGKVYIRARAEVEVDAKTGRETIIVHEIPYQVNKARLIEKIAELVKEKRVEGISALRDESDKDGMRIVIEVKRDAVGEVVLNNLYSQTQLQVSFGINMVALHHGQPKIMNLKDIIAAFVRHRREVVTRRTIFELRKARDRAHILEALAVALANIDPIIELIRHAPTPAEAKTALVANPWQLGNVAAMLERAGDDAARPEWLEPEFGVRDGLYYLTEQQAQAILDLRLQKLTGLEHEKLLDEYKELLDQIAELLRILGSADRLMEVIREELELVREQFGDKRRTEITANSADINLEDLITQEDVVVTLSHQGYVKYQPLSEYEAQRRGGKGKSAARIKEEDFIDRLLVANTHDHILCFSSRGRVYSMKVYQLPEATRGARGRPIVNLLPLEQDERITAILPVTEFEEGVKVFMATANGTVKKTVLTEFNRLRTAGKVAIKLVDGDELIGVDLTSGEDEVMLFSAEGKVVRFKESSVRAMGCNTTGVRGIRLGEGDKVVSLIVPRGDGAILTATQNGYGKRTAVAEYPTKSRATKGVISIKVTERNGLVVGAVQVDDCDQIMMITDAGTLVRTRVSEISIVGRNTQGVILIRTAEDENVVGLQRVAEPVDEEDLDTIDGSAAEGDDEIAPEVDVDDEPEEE
structure (smiles),measurement,setting,value
"O=c1cc(NC[C@H](O)[C@@H](O)C2CCN(c3nccc4ccc(F)cc34)CC2)c2ccccc2o1 (racemic) [Compound 128, (2S,3S) and (2R,3R) 4-({3-[1-(7-fluoroisoquinolin-1-yl)piperidin-4-yl]-2,3-dihydroxypropyl}amino)-2H-chromen-2-one hydrochloride]",% inhibition DNA gyrase,DNA gyrase [1],n/a (n/a = not active)
same,% inhibition Topo IV,Topoisomerase IV [2],n/a (n/a = not active)
same,% inhibition Topo IV,Topoisomerase IV [3],n/a (n/a = not active)
same,% inhibition DNA gyrase,DNA gyrase [4],66%
"O=c1cc(NC[C@@H](O)[C@@H](O)C2CCN(c3nccc4ccc(F)cc34)CC2)c2ccccc2o1 (racemic) [Compound 129, (2R,3S) and (2S,3R) 4-({3-[1-(7-fluoroisoquinolin-1-yl)piperidin-4-yl]-2,3-dihydroxypropyl}amino)-2H-chromen-2-one hydrochloride]",% inhibition DNA gyrase,DNA gyrase [1],69%
same,% inhibition Topo IV,Topoisomerase IV [2],n/a (n/a = not active)
same,% inhibition Topo IV,Topoisomerase IV [3],n/a (n/a = not active)
same,% inhibition DNA gyrase,DNA gyrase [4],n/a (n/a = not active)
"O=C(NCCCN1CCN(c2nccc3ccccc23)CC1)c1cccnc1 [Compound 2, N-{3-[4-(isoquinolin-1-yl)piperazin-1-yl]propyl}pyridine-3-carboxamide hydrochloride]",% inhibition DNA gyrase,DNA gyrase [1],n/a (n/a = not active)
same,% inhibition Topo IV,Topoisomerase IV [2],n/a (n/a = not active)
same,% inhibition Topo IV,Topoisomerase IV [3],65%
same,% inhibition DNA gyrase,DNA gyrase [4],n/a (n/a = not active)
"O=C(NCCCN1CCN(c2nccc3ccccc23)CC1)c1ccccc1 [Compound 3, N-{3-[4-(isoquinolin-1-yl)piperazin-1-yl]propyl}benzamide hydrochloride]",% inhibition DNA gyrase,DNA gyrase [1],59%
same,% inhibition Topo IV,Topoisomerase IV [2],n/a (n/a = not active)
same,% inhibition Topo IV,Topoisomerase IV [3],n/a (n/a = not active)
same,% inhibition DNA gyrase,DNA gyrase [4],n/a (n/a = not active)
"O=c1cc(NCCCN2CCN(c3nccc4ccccc34)CC2)c2ccccc2[nH]1 [Compound 58, 4,4-({3-[4-(isoquinolin-1-yl)piperazin-1-yl]propyl}amino)quinolin-2(1H)-one hydrochloride]",% inhibition DNA gyrase,DNA gyrase [1],100%
same,% inhibition Topo IV,Topoisomerase IV [3],n/a (n/a = not active)
same,% inhibition DNA gyrase,DNA gyrase [4],n/a (n/a = not active)
"O=C(CN1CCC(Nc2cc(=O)oc3ccccc23)CC1)Nc1nccc2ccccc12 [Compound 117, N-(isoquinolin-1-yl)-2-{4-[(2-oxo-2H-chromen-4-yl)amino]piperidin-1-yl}acetamide]",% inhibition DNA gyrase,DNA gyrase [1],75%
same,% inhibition Topo IV,Topoisomerase IV [3],n/a (n/a = not active)
same,% inhibition DNA gyrase,DNA gyrase [4],n/a (n/a = not active)
"c1ccc2sc(CNCCCN3CCN(c4nccc5ccccc45)CC3)cc2c1 [Compound 119, N-(1-benzothiophen-2-ylmethyl)-3-[4-(isoquinolin-1-yl)piperazin-1-yl]propan-1-amine]",% inhibition DNA gyrase,DNA gyrase [1],n/a (n/a = not active)
same,% inhibition Topo IV,Topoisomerase IV [3],n/a (n/a = not active)
same,% inhibition DNA gyrase,DNA gyrase [4],60%
"c1ccc2c(N3CCN(CCCNCc4ccc5c(c4)OCO5)CC3)nccc2c1 [Compound 120, N-(1,3-benzodioxol-5-ylmethyl)-3-[4-(isoquinolin-1-yl)piperazin-1-yl]propan-1-amine]",% inhibition DNA gyrase,DNA gyrase [1],n/a (n/a = not active)
same,% inhibition Topo IV,Topoisomerase IV [3],n/a (n/a = not active)
same,% inhibition DNA gyrase,DNA gyrase [4],76%
"c1ccc2c(N3CCN(CCNCc4ccc5c(c4)OCO5)CC3)nccc2c1 [Compound 130, N-(1,3-benzodioxol-5-ylmethyl)-2-[4-(isoquinolin-1-yl)piperazin-1-yl]ethanamine]",% inhibition DNA gyrase,DNA gyrase [1],n/a (n/a = not active)
same,% inhibition Topo IV,Topoisomerase IV [3],n/a (n/a = not active)
same,% inhibition DNA gyrase,DNA gyrase [4],74%
"O=C(O)CC(NC[C@@H](O)CN1CCN(c2nccc3ccc(F)cc23)CC1)C1CCCCC1 (stereo partly drawn) [Compound 136, 3-cyclohexyl-3-({(2R)-3-[4-(7-fluoroisoquinolin-1-yl)piperazin-1-yl]-2-hydroxypropyl}amino)propanoic acid]",% inhibition DNA gyrase,DNA gyrase [1],57%
same,% inhibition Topo IV,Topoisomerase IV [3],n/a (n/a = not active)
same,% inhibition DNA gyrase,DNA gyrase [4],75%
"O=C(O)CC(NC[C@H](O)CN1CCN(c2nccc3ccc(F)cc23)CC1)C1CCCCC1 (stereo partly drawn) [Compound 137, 3-cyclohexyl-3-({(2S)-3-[4-(7-fluoroisoquinolin-1-yl)piperazin-1-yl]-2-hydroxypropyl}amino)propanoic acid]",% inhibition DNA gyrase,DNA gyrase [1],57%
same,% inhibition Topo IV,Topoisomerase IV [3],n/a (n/a = not active)
same,% inhibition DNA gyrase,DNA gyrase [4],75%
"O=C(O)[C@@H](NC[C@H](O)CN1CCN(c2nccc3ccc(F)cc23)CC1)C1CCCCC1 [Compound 138, (2S)-cyclohexyl({(2S)-3-[4-(7-fluoroisoquinolin-1-yl)piperazin-1-yl]-2-hydroxypropyl}amino)acetic acid]",% inhibition DNA gyrase,DNA gyrase [1],n/a (n/a = not active)
same,% inhibition Topo IV,Topoisomerase IV [3],n/a (n/a = not active)
same,% inhibition DNA gyrase,DNA gyrase [4],89%
"O=C(O)[C@H](NC[C@@H](O)CN1CCN(c2nccc3ccc(F)cc23)CC1)C1CCCCC1 [Compound 139, (2R)-cyclohexyl({(2R)-3-[4-(7-fluoroisoquinolin-1-yl)piperazin-1-yl]-2-hydroxypropyl}amino)acetic acid]",% inhibition DNA gyrase,DNA gyrase [1],n/a (n/a = not active)
same,% inhibition Topo IV,Topoisomerase IV [3],n/a (n/a = not active)
same,% inhibition DNA gyrase,DNA gyrase [4],54%
"O=C(O)[C@@H](NC[C@@H](O)CN1CCN(c2nccc3ccc(F)cc23)CC1)C1CCCCC1 [Compound 140, (2S)-cyclohexyl({(2R)-3-[4-(7-fluoroisoquinolin-1-yl)piperazin-1-yl]-2-hydroxypropyl}amino)acetic acid]",% inhibition DNA gyrase,DNA gyrase [1],68%
same,% inhibition Topo IV,Topoisomerase IV [3],n/a (n/a = not active)
same,% inhibition DNA gyrase,DNA gyrase [4],92%
"OCCC(NCCNC1CCN(c2nccc3ccc(F)cc23)CC1)C1CCCCC1 (stereo not shown) [Compound 167, 3-cyclohexyl-3-[(2-{[1-(7-fluoroisoquinolin-1-yl)piperidin-4-yl]amino}ethyl)amino]propan-1-ol]",% inhibition DNA gyrase,DNA gyrase [1],n/a (n/a = not active)
same,% inhibition Topo IV,Topoisomerase IV [3],n/a (n/a = not active)
same,% inhibition DNA gyrase,DNA gyrase [4],70%
"COC(=O)CC(NCCNC1CCN(c2nccc3ccc(F)cc23)CC1)C1CCCCC1 (stereo not shown) [Compound 189, methyl 3-cyclohexyl-3-[(2-{[1-(7-fluoroisoquinolin-1-yl)piperidin-4-yl]amino}ethyl)amino]propanoate]",% inhibition DNA gyrase,DNA gyrase [1],n/a (n/a = not active)
same,% inhibition Topo IV,Topoisomerase IV [3],n/a (n/a = not active)
same,% inhibition DNA gyrase,DNA gyrase [4],84%
"O=C(CC(NCCNC1CCN(c2nccc3ccc(F)cc23)CC1)C1CCCCC1)NO (stereo not shown) [Compound 191, 3-cyclohexyl-3-[(2-{[1-(7-fluoroisoquinolin-1-yl)piperidin-4-yl]amino}ethyl)amino]-N-hydroxypropanamide]",% inhibition DNA gyrase,DNA gyrase [1],n/a (n/a = not active)
same,% inhibition Topo IV,Topoisomerase IV [3],n/a (n/a = not active)
same,% inhibition DNA gyrase,DNA gyrase [4],81%
